Assay results: patent US20220259656A1, “BLOOD BIOMARKER AND GENETIC MARKERS ASSOCIATED WITH RESPONSE TO CRTH2 RECEPTOR ANTAGONISTS” (Merck Sharp & Dohme Corp., priority 2019, published 2022)

What was measured:
[1] = system: participants with persistent asthma uncontrolled on montelukast, positive for C allele of rs12748961 SNP; experiment: Randomized, placebo-controlled, double-blind clinical study of Compound A added to montelukast; change from baseline in FEV1; type: in vivo, human; conditions: for Average Change From Baseline FEV1 (L), Mean: Cmpd A 150 mg + ML
Procedure: The inventors conducted a world-wide, randomized, placebo-controlled, double-blind, parallel group study of the CRTH2 receptor antagonist, {(7R)-4-fluoro-7-[5-(4-fluorobenzyl)-1H-[1,2,3]triazol-1-yl]-6,7,8,9-tetrahydropyrido[1,2-a]indol-10-yl}-acetic acid (hereinafter “Compound A”) in participants with persistent asthma who remained uncontrolled while being maintained on montelukast (ML). At Prescreening Visit 1, participants were tested for the presence of the rs 12748961 SNP to determine eligibility. The primary efficacy analysis compared the effect of Compound A to placebo, when each was added to montelukast, on the average change from baseline in FEV1 using a constrained longitudinal data analysis model.
Eligible participants were male and female participants between the ages of 18 and 65 with persistent asthma for at least 1 year and a documented SNP+test result. Participants also must have had acceptable lung function at Visit 2 and Visit 4 and evidence of reversibility of airway obstruction. Approximately 139 eligible participants whose asthma was uncontrolled during a run-in period of approximately 2 to 4 weeks entered a 6-week double-blind treatment period and were randomized in a 1:1 ratio to receive either Compound A 150 mg and montelukast 10 mg or Compound A 150 mg matching-image placebo and montelukast 10 mg. Randomization was stratified according to the number of C alleles (having either 1 or 2 copies of the allele) at the rs12748961 SNP. The total study duration for each participant was up to 17 weeks.
FIG. 2 is a graphical depiction of the study design. Briefly, salient activities occurring during the study are described below. During a pre-screening visit, a blood sample is collected to assess for the presence of the C-allele of rs12748961 SNP. At the start of the pre-study period, eligible subjects receiving Long-Acting Beta-Agonist (LABA) therapy were asked to discontinue the LABA. During run-in period (approximately 2 to 4 weeks), subjects receive single-blind Compound A 150 mg matching-image placebo and open-label montelukast 10 mg. Subjects taking asthma controller therapies prior to Visit 2 were asked to discontinue or taper off these pre-study medications before randomization while receiving open-label montelukast 10 mg. During the treatment period (approximately 6 weeks): Subjects received double-blind treatment of Compound A 150 mg plus montelukast 10 mg; or Compound A 150 mg matching-image placebo plus montelukast 10 mg.
In order to identify patient groups susceptible to treatment response, the inventors conducted an analysis on pre-specified patient subgroups in the study based on (a) demographic variables (including age, gender, race, weight, height, and body mass index) and (b) baseline characteristics (including duration of asthma, age diagnosed of asthma, asthma controller pre- trial, ICS use, blood eosinophil count, baseline ACQ-6, and smoking history), (c) prior and secondary diagnoses, (d) prior and concomitant therapies, and (e) the number of C alleles of the rs12748961 SNP on asthmatic study subjects who had undergone a clinical trial with a CRTH2 receptor antagonist and the leukotriene antagonist montelukast. The analysis sought to assess whether a mean treatment difference varies across patient subgroups defined by several pre-specified characteristics and who also tested positive for at least one copy of the C allele of the rs12748961 SNP.

allergic rhinitis = conditions: in vivo; cited from earlier work
[2] = system: patient population afflicted with eosinophilic severe asthma; conditions: patients with eosinophilic severe asthma, Phase IIa; cited from earlier work
[3] = Cmpd A 150 mg + montelukast 10 mg, full study population

For `O=C(O)Cc1c2n(c3c(F)cccc13)C[C@H](n1nncc1Cc1ccc(F)cc1)CC2` [Compound A, {(7R)-4-fluoro-7-[5-(4-fluorobenzyl)-1H-[1,2,3]triazol-1-yl]-6,7,8,9-tetrahydropyrido[1,2-a]indol-10-yl}-acetic acid], the “Estimated Differences with placebo + ML, Difference in LS Means, FEV1 at Week 4 and Week 6” value ([1]; Cmpd A 150 mg + ML vs. placebo + ML, full study population) was 107 mL, the “Estimated Differences With Placebo + ML, LS Mean, FEV1” value ([1]; Cmpd A 150 mg + ML vs. placebo + ML, subgroup baseline eosinophil count <0.30 × 10^9/L) was 63 mL and the “Estimated Differences With Placebo + ML, LS Mean, FEV1” value ([1]; Cmpd A 150 mg + ML vs. placebo + ML, subgroup baseline eosinophil count >0.30 × 10^9/L) was 193 mL. For the same molecule, the “Average Change From Baseline FEV1 (L), Mean” value ([1]; subgroup baseline eosinophil count <0.30 × 10^9/L) was 0.166 L, the “Average Change From Baseline FEV1 (L), Mean” value ([1]; subgroup baseline eosinophil count >0.30 × 10^9/L) was 0.139 L and the “Average Change from Baseline in FEV1 (L) at Week 4 and Week 6, Mean” value [1, 3] was 0.156 L. For the same molecule, the “Average Change from Baseline in FEV1 (L) at Week 4 and Week 6, Median” value [1, 3] was 0.091 L, the “FEV1 (L) Average at Week 4 and Week 6, Mean” value ([1]; Cmpd A 150 mg + montelukast 10 mg, full study population, 6-week treatment) was 2.426 L and the “Average Change from Baseline in FEV1 (L) at Week 4 and Week 6, LS Mean” value ([1]; Cmpd A 150 mg + montelukast 10 mg, full study population, cLDA model) was 0.152 L.

For `O=C(O)CCn1c2c(c3ccccc31)C[C@H](NS(=O)(=O)c1ccc(F)cc1)CC2` [Ramatroban, 3-((3R)-3-{[(4-fluorophenyl)sulfonyl]amino}-1,2,3,4-tetrahydro-9H-carbazol-9-yl)propanoic acid], the “efficacy in allergic rhinitis” value (allergic rhinitis) is given as “some degree of efficacy”.

For `Cc1c(CC(=O)O)c2cccnc2n1Cc1ccc(S(C)(=O)=O)cc1C(F)(F)F` [fevipiprant, 2-(2-methyl-1-(4-(methylsulfonyl)-2-(trifluoromethyl)benzyl)-1H-pyrrolo[2,3-b]pyridin-3-yl)acetic acid], the sputum eosinophils [2] is given as “reduction of sputum eosinophils”.
